Assay results: patent publication US20240238272A1, “TREATMENT OF ANTIPHOSPHOLIPID SYNDROME USING S-HYDROXYCHLOROQUINE” (Genovate Biotechnology Co. Ltd., priority 2021, published 2024)
Blank lines part the entries; values can stand above or below the compound they belong to.

Legend:
[1] = molecular target: T1, β2-GP1 and antibody binding (Homo sapiens, UniProt P02749); assay: Dot blot assay of β2-GP1 and antibody binding, THP-1 total lysate; settings: 10 mg/mL, mean ± S.E.M., triplicate
T1 construct: THP-1 is a human peripheral blood monocyte that highly expresses β2-GP1; endogenous in cells; host or cells: THP-1 (human monocyte cell line): total lysate in the dot blot, whole cells in the ELISA
T1 sequence (P02749 20-345): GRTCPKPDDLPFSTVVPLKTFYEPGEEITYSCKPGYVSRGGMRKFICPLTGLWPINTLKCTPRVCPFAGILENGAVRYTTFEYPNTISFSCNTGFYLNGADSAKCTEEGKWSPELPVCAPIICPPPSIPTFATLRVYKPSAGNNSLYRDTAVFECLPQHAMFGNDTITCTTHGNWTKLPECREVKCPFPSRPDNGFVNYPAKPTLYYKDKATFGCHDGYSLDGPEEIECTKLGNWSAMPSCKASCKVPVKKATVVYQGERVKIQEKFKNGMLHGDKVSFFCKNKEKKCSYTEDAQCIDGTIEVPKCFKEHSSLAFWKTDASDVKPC
Description: THP-1 is a human peripheral blood monocyte that highly expresses β2-GP1 and is associated with increased APS in patients. Before treating with HCQ, THP-1 cells were fixed in a 3.7% paraformaldehyde solution, blocked in a phosphate-buffered saline (PBS) containing 1% bovine serum albumin (BSA), and incubated with a mouse aPL antibody (A500-006A, Bethyl Laboratories, Montgomery, Texas). Cellular immunofluorescent staining was used to determine β2-GP1 expression.
Separate samples were prepared for a dot blot assay as follows: a THP-1 total lysate was loaded to a polyvinylidene difluoride membrane, blocked with PBS containing 1% BSA, and incubated with mouse anti-β2-GP1 A500-006A, together with S-HCQ, R-HCQ, or racemic HCQ, each at a concentration of 10 mg/mL. A control sample was obtained following the same procedure described above except that no HCQ was added.
(§1) All assays above were performed in triplicate. Reported results are expressed as means±S.E.M. All statistical analyses were performed using a software under the trademark of GraphPad Prism® (Version 8.0. GraphPad Software Inc, San Diego, California). For comparisons between two groups, student's test was used. A p-value<0.05 was considered statistically significant.

[2] = molecular target: T2, β2-GP1 and antibody binding (THP-1 cells) (Homo sapiens, UniProt P02749); assay: ELISA assay of β2-GP1-antibody binding to THP-1 membrane; format: cell-based
T2 construct: THP-1 is a human peripheral blood monocyte that highly expresses β2-GP1; endogenous in cells; host or cells: THP-1 (human monocyte cell line): total lysate in the dot blot, whole cells in the ELISA
T2 sequence (P02749 20-345): T1 sequence (P02749 20-345)
Description: Subsequently, an ELISA assay was performed to determine whether S-HCQ or R-HCQ inhibiting binding of β2-GP1-antibody complexes to the THP-1 membrane. THP-1 cells thus treated were resuspended to a density of 3.6×10^5 cells/mL in a medium containing 80% RPMI-1640 (Thermo Fisher Scientific, Waltham, Massachusetts), 20% anti-β2-GP1 immunoglobulin G (“IgG”) (0.2 mg/mL) in HEPES-buffered saline (HBS, pH 7.45), and S-HCQ. Three samples were each prepared from a medium having a different S-HCQ concentration, i.e., 1 μg/mL, 2.5 μg/mL, or 5 μg/mL. A control sample was obtained following the same procedure described above except that no S-HCQ was added. Optical absorbance was measured at 450 nm.
as §1

[3] = system: annexin V on THP-1 cell surfaces; assay: Restoration of annexin A5 anticoagulant shield on THP-1 cells treated with anti-β2-GP1 IgG; format: cell-based, human; settings: 0.5 μg/mL HCQ; comparative sample without HCQ = 1
Description: THP-1 cells were first maintained in a RPMI1640 medium (Thermo Fisher Scientific, Waltham, Massachusetts) containing 10% fetal bovine serum, 2 mM L-glutamine, and 50 U/mL penicillin-streptomycin antibiotics. They were then seeded at a density of 8×10^4 cells/well in a 96-well culture plate and were allowed to reach confluence. Subsequently, THP-1 cells were treated with anti-β2-GP1 IgG in the presence of 0.5 μg/mL HCQ. Levels of annexin V on cell surfaces were determined by optical absorbance after the IgG-treated THP-1 cells were rinsed with HBS-CaCl2) solution to remove free annexin V, leaving only annexin V that is attached to the cell surface.
Three samples were prepared each with one of three HCQ (i.e., S-HCQ, R-HCQ, and racemic HCQ) solutions. A comparative sample was obtained following the same procedure described above except that HCQ was not added. A patient serum containing β2-GP1 antibody was used as a control sample.

[4] = system: E-selectin; assay: APS-related thrombosis mice model, serum expression level of E-selectin; format: in vivo; settings: for Inhibition (E-selectin): relative to comparative group; for Thrombosis (E-selectin): serum expression level relative to comparative group
Description: (§2) Venous thrombosis was induced in mice using an endothelial injury model. Mice were intravenously (IV) injected 7.5% FeCl3 (positive control), saline (negative control), or an APS-derived anti-β2GP1 antibody (from Patient 2) at a dosage of 100, 200, or 300 AU (test group). They were anesthetized 72 hours after the injection. The right femoral vein was exposed and pinched with a pressure of 1500 g/mm^2 to induce formation of a thrombus.
(§3) Based on the APS animal model described above, R-HCQ and S-HCQ were administered to mice for reducing thrombosis. Mice were divided into 6 groups, each of which was injected with (1) IgG as a control group, (2) 100 AU of the anti-β2GPI antibody as a comparative group, (3) a combination of 100 AU of the anti-B2GPI antibody and 300 μg of S-HCQ as treatment group 3, (4) a combination of 100 AU of the anti-B2GPI antibody and 200 μg of S-HCQ as treatment group 4, (5) a combination of 100 AU of the anti-B2GPI antibody and 200 μg of R-HCQ as treatment group 5, or (6) a combination of 100 AU of the anti-β2GP1 antibody and 100 μg of R-HCQ as treatment group 6.
(§4) Serum expression levels of E-selectin and VCAM-1, two biomarkers of APS-related thrombosis, were measured. Percentages of inhibition in treatment groups 3-6 were calculated based on the expression levels of E-selectin and VCAM-1 relative to the comparative group. A low expression level of E-selectin or VCAM-1 indicates high inhibition of thrombosis.

[5] = system: VCAM-1; assay: APS-related thrombosis mice model, serum expression level of VCAM-1; format: in vivo; settings: for Inhibition (VCAM-1): relative to comparative group; for Thrombosis (VCAM-1): serum expression level relative to comparative group
Description: as §2, §3, §4

[6] = system: APS-related thrombosis (E-selectin and VCAM-1); assay: APS-related thrombosis mice model, average of E-selectin and VCAM-1; format: in vivo
Description: as §2, §3, §4

[7] = system: thrombosis induced by anti-β2GP1 antibody; assay: APS-related thrombosis mice model, femoral vein pinch, clot formation; format: in vivo, C57BL/6 male mice
Description: C57BL/6 male mice at ages of 8-12 weeks (purchased from BioLasco, Taiwan) were used in this study. All procedures were approved by the Institutional Animal Care Committee of Taipei Medical University. Venous thrombosis was induced in mice using an endothelial injury model. […] They were anesthetized 72 hours after the injection. The right femoral vein was exposed and pinched with a pressure of 1500 g/mm^2 to induce formation of a thrombus. […] As such, the anti-β2GP1 antibody was injected to a mouse at 100 AU for all studies below. Following the procedure described above, a mouse (i.e., HCQ-treated mouse) was injected with 100 AU of the anti-β2GP1 antibody from Patient 5 and 2000 μg racemic-HCQ (200 μl at 10 mg/ml). As a control, a group of mice (n=4; APS-induced mice) were injected with only 100 AU of the anti-β2GP1 antibody. After 72 hours, the right femoral vein of each mouse was exposed and pinched with a pressure of 1500 g/mm^2 to induce formation of a thrombus. Thrombosis time (in minute) was recorded. […] Clots were removed from the femoral vein after pinch for 5 minutes.

inhibition of β2-GP1 and antibody binding [1]: 97%
inhibition rate of β2-GP1 and antibody binding ([2]; 1 μg/mL): 25%
inhibition rate of β2-GP1 and antibody binding ([2]; 2.5 μg/mL): 60%
inhibition rate of β2-GP1 and antibody binding ([2]; 5 μg/mL): 90%
SMILES: CCN(CCO)CCC[C@H](C)Nc1ccnc2cc(Cl)ccc12 [S-HCQ, S-(+)-hydroxychloroquine]
relative level of annexin V [3]: 3.45
Inhibition (E-selectin) ([4]; 200 μg): 53.8%
Thrombosis (E-selectin) ([4]; 200 μg): 46.2%
Inhibition (E-selectin) ([4]; 300 μg): 59.4%
Thrombosis (E-selectin) ([4]; 300 μg): 40.6%
Inhibition (VCAM-1) ([5]; 200 μg): 49%
Thrombosis (VCAM-1) ([5]; 200 μg): 50.9%
Inhibition (VCAM-1) ([5]; 300 μg): 52%
Thrombosis (VCAM-1) ([5]; 300 μg): 47.8%
Inhibition Average ([6]; 200 μg): 51.4%
Thrombosis Average ([6]; 200 μg): 48.55%
Inhibition Average ([6]; 300 μg): 55.7%
Thrombosis Average ([6]; 300 μg): 44.2%

inhibition of β2-GP1 and antibody binding [1]: 23%
SMILES: CCN(CCO)CCC[C@@H](C)Nc1ccnc2cc(Cl)ccc12 [R-HCQ, (R)-(−)-hydroxychloroquine]
relative level of annexin V [3]: 2.54
Inhibition (E-selectin) ([4]; 100 μg): 25.2%
Thrombosis (E-selectin) ([4]; 100 μg): 74.8%
Inhibition (E-selectin) ([4]; 200 μg): 30%
Thrombosis (E-selectin) ([4]; 200 μg): 70%
Inhibition (VCAM-1) ([5]; 100 μg): 16.3%
Thrombosis (VCAM-1) ([5]; 100 μg): 83.7%
Inhibition (VCAM-1) ([5]; 200 μg): 23%
Thrombosis (VCAM-1) ([5]; 200 μg): 75%
Inhibition Average ([6]; 100 μg): 20.75%
Thrombosis Average ([6]; 100 μg): 79.25%
Inhibition Average ([6]; 200 μg): 26.5%
Thrombosis Average ([6]; 200 μg): 72.5%

inhibition at 10000 µg/mL [1]: 80%
SMILES: CCN(CCO)CCCC(C)Nc1ccnc2cc(Cl)ccc12 (racemic) [racemic HCQ, Hydroxychloroquine]
relative level of annexin V [3]: 3.09
thrombosis time ([7]; 2000 μg with 100 AU anti-β2GP1 antibody, 72 hours after injection, healthy mice 5, APS-induced mice 2): 5 min
thrombus size ([7]; 2000 μg, clots removed after pinch for 5 minutes, versus mice without HCQ treatment): significantly reduced the thrombus size
